Results taken from patent publication US9725490B2, “ERAP1-derived peptide and use thereof” (TOKUSHIMA UNIVERSITY, priority 2011, dated 2017).
Where no end group is shown, it is not given here.

Experiments:
[1] = test system: PHB2/REA (Ser39) phosphorylation; assay: Okadaic acid treatment, immunoblotting of PHB2/REA phosphorylation, MCF-7; assay type: cell-based, human
Experimental: FIG. 31-2 is a diagram illustrating that phosphorylation of ERAP1 by PKA and PKB regulates phosphorylation of PHB2/REA (S39) through the PP1α activity. […] (S39) is caused. MCF-7 cells suppressed for expression of PKA by siRNA method, were stimulated with 10 nM E2 for 24 hours. In addition, MCF-7 cells were treated with H-89 for 30 minutes and washed with PBS. Then, immediately, the cells were stimulated with 10 nM E2 for 24 hours. […] Then, immediately, the cells were stimulated with 10 nM E2 for 24 hours. […] MCF-7 cells suppressed for expression of PKCα by siRNA method were treated with 10 μM ERAP1 peptide. Then, immediately, the cells were stimulated with 10 nM E2 for 24 hours. The cells were fractionated into cytoplasm and nuclear fractions by specific gravity centrifugation.

[2] = test system: transcriptional activity of ERα (ERE); assay: ERE-luciferase reporter assay in MCF-7 cells; assay type: cell-based, human; settings: 10 nM E2 24 hours
Experimental: FIG. 3-2 is a diagram illustrating promotion effect of PHB2 nuclear translocation and suppression effect of the transcriptional activation of ER by ERAP1-peptide treatment. (C) illustrates representative images of stained immune cells, showing the localization of the ERAP1-peptide (HA-tagged ERAP1-peptide) and PHB2. MCF-7 cells were treated with 10 μM HA-tagged ERAP1-peptide for 24 hours in the presence or in the absence of 10 nM E2. After the immobilization, the cells were subjected to immunonfluorescent staining using an anti-HA antibody, an anti-PHB2 antibody and DAPI (for discriminating the nucleus). The arrow indicates the nuclear-translocated ERAP1-peptide. […] Then, immediately, the cells were stimulated with 10 nM E2 for 24 hours. TAM indicates the tamoxifen treatment.
FIG. 3-3 is as diagram illustrating the results of the luciferase assay by which the inhibition effect of the ERAP1-peptide was evaluated. MCF-7 cells temporarily transfected with an ERE-luciferase reporter vector (F) or an AP-1-luciferase reporter vector (F) were treated with the ERAP1-peptide, the scramble peptide or the mutant peptide in the concentrations shown in the […]. Then, immediately, the cells were stimulated with 10 nM E2 for 24 hours. TAM indicates the tamoxifen treatment.
FIG. 4-3 is a diagram illustrating that the ERAP1-peptide promotes nuclear translocation of PHB2. (C) and (D) are figures that show the results of the luciferase assay by which the inhibition effect of the ERAP1-peptide on the ERα transcriptional activity was evaluated. MCF-7 cells temporarily transfected with an ERE-luciferase reporter vector (C) or an AP-1-luciferase reporter vector (D) were treated with the ERAP1-peptide in the concentrations shown in the figure or 10 nM tamoxifen. Then, immediately, the cells were stimulated with 10 nM E2 thr 24 hours.
For ERE reporter assay, MCF-7 cells were transfected with ERE reporter (SABiosciences, Frederick, Md., USA) in accordance with the instruction of the manufacturer. For AP-1 reporter assay, MCF-7 cells were transfected with AP-1 reporter (mouse IL-11 promoter comprising two tandem AP-1 sites subcloned into PGL2-basic vector), c-fos, c-Jun and pRL-TK as an internal standard. After 16 hours from the transfection, the culture medium was exchanged with an assay culture medium (Opti-MEM, 10% FBS, 0.1 mM NEAA, 0.1 mM Sodium pyruvate and 10 μg/ml insulin) After 24 hours from the transfection, the cells were treated with E2 and/or the ERAP1-peptide or 24 hours. The cells were harvested, and the activities of luciferase and Renilla-luciferase were evaluated using Promega dual luciferase reporter assay (Tokyo, Japan). In consideration of the transfection efficiency, all of the data were standardized by the activity of Renilla-luciferase.

[3] = biological target: T1, binding of Flag-ERAP1 and His-PHB2/REA (Homo sapiens, UniProt Q99623); assay: Ni-resin pull-down and Western of His-PHB2/REA with Flag-ERAP1 cell lysate; settings: pull-down, each concentration
T1 construct: human PHB2 (residues 77-244); thioredoxin (TrxA) (N); TEV protease cut site (N); made in house; host or cells: PHB2: Escherichia coli BL21 star (DE3); Flag-ERAP1: lysate of transiently transfected COS-7 cells
Experimental: FIG. 2 is a diagram illustrating the results of immunoblotting analysis by which binding of the ERAP1-peptide to PHB2 was evaluated. The cell lysate of the COS-7 cells temporarily transfected with the Flag-tagged ERAP1 plasmid was incubated for 1 hour together with 6×His-tagged recombinant PHB2 protein (10 μg) and the ERAP1-peptide, the ERAP1-scramble peptide, or the ERAP1-mutant peptide in each concentration shown in the figure. Then, His-PHB2 was subjected to pull-down with Ni-NTA agarose (Ni-resin).
The partial sequence of human PHB2 (residues 77-244) was cloned into NcoI and XhoI sites of pTAT6 expression vector (see gift by Dr. Marko Hyvonen, University of Cambridge.: Peranen J, et al., (1996). Anal Biochem. 236, 371-373.) so as to become inframe with the hexahistidine tag, thioredoxin (TrxA) and TEV protease cut site (TEV site) at the amino terminal. The recombinant protein was expressed in Escherichia coli BL21 star (DE3) cell line (Invitrogen, Carlsbad, Calif.), and purified using Hi-Trap Kit (GE Healthcare). Finally, the recombinant protein was purified according to the protocol of the supplier using superdex 200 gel filtration column (GE Healthcare) with high performance liquid chromatography (HPLC). […]

[4] = test system: PHB2/REA localization in MCF-7 cells; assay: Nuclear translocation of PHB2/REA (fractionation, immunoblotting, immunostaining); assay type: cell-based, human; settings: 1 hour to 24 hours after administration
Experimental: FIG. 3-1 is a diagram illustrating that ERAP1-peptide treatment promotes nuclear translocation of PHB2. […] MCF-7 cells were stimulated for 24 hours with 10 μM ERAP1-peptide and/or 10 nM E2. The cells were fractioned into mitochondria, cytoplasm, and nuclear fractions by specific gravity centrifugation. Then, each fraction was subjected to immunoblotting analysis using an anti-ERAP1 antibody and an anti-PHB2 antibody. PRDX3, α/β-Tublin (Tublin) and lamin B are markers for mitochondria, cytoplasm, and nuclear fractions, respectively (upper panel). The protein content of each fraction was evaluated with Coomassie-stained SDS-PAGE gel (lower panel). […] KPL-3C cells were treated for 24 hours with 10 μM HA-tagged ERAP1-peptide and/or 10 nM E2. Then, the cells were fractionated into cytoplasm and nuclear fractions by specific gravity centrifugation. Then, which fraction was immunoprecipitated with anti-ERα antibody, an anti-ERAP1 antibody or an anti-PHB2 antibody. Then, immunoblotting was performed with each antibody shown in the figure (an anti-ERAP1 antibody, an anti-ERα antibody, an anti-PHB2 antibody and an anti-HA antibody (Peptide)). α/β-Tubulin (Tubulin) and Lamin B are markers for cytoplasm and nuclear fractions, respectively.
FIG. 4-1 is a diagram illustrating that the ERAP1-peptide promotes nuclear translocation of PHB2. (A) The upper panel illustrates representative images of stained immune cells, showing the intracellular localization of PHB2. MCF-7 cells were treated with 10 μM ERAP1-peptide or ERAP1-scramble peptide. Subsequently, the cells were treated with 10 nM E2. After the immobilization, the cells were subjected to immunofluorescent staining using an anti-PHB2 antibody and DAPI (for discriminating the nucleus).
FIG. 4-2 is a diagram illustrating that the ERAP1-peptide promotes nuclear translocation of PHB2. (B) is a diagram illustrating the results of immunoblotting analysis by which the intracellular localization of PHB2 was detected, MCF-7 cells were treated with the ERAP1-peptide or the ERAP1-scramble peptide. Subsequently immediately, the cells were treated with 10 nM E2. The cells were fractionated into cytoplasm and nuclear fractions after 1 hour or 24 hours. Each fraction was immunoprecipitated with anti-ERα antibody, an anti-ERAP1 antibody or a PH82 antibody. […]
MCF-7 cells were seeded in an 8-well chamber (Laboratory-Tek II Chamber Slide System, Nalgen Nunc International, Naperville, Ill., USA) in 5×10^4 cells/well, and cultured under estrogen-free condition for 24 hours. […] The fluorescence image was obtained under Olympus IX71 microscope (Tokyo, Japan). […]

T1 sequence (Q99623 77-244): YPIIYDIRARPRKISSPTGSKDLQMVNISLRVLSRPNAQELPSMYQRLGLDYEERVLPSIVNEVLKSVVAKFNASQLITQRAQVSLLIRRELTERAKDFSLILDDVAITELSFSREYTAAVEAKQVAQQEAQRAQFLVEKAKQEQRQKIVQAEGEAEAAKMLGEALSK

| Compound | E2-dependent PHB2/REA phosphorylation (Ser39) ([1]; 20 nM of okadaic acid) | E2-dependent PHB2/REA phosphorylation (Ser39) ([1]; 40 μM) | transcriptional activity of ERα in ERE [2] | direct binding to His-PHB2/REA [3] | inhibition of binding of Flag-ERAP1 and His-PHB2/REA [3] | nuclear translocation of PHB2/REA, temporal [4] |
| --- | --- | --- | --- | --- | --- | --- |
| C=C1[C@@H](O)[C@@H]2O[C@]3(CC[C@H](/C=C/[C@@H](C)[C@@H]4CC(C)=C[C@@]5(O[C@H](C[C@@](C)(O)C(=O)O)CC[C@H]5O)O4)O3)CC[C@H]2O[C@@H]1[C@@H](O)C[C@H](C)[C@H]1O[C@@]2(CCCCO2)CC[C@H]1C [okadaic acid] | recognized to be recovered | confirmed to decrease |  |  |  |  |
| ERAP1-HA-peptide: ERAP1-peptide to which HA tag was added (RRRRRRRRRRRQMLSDLTLQLRQR; also: HA tag added, place not given here) |  |  | suppressed the transcriptional activity of ERα | directly bound to His-PHB2/REA, depending on the concentration | competitively inhibited | directly bound to PHB2/REA and was nuclear-translocated at the same time |
